The subject of one experiment is HDAC. As to conditions: cited from earlier work.
In the next experiment the test system is EBV lymphoma cells. Particulars: cited from earlier work.
The nature of experiment [1]: Biological activity of fully substituted derivatives (test not specified). The source says: Also, peak (2) was not divided into several small fragments, nor was it possible to separate it using different conditions of thin layer chromatography, which indicates the stable nature of the formed supramolecular structure from different derivatives.
In experiment [2] the test system is p300-induced p65 acetylation. Particulars: in vitro and in vivo; cited from earlier work.
The test system of another experiment is EBV infection. As to conditions: cited from earlier work.

Consider trichostatin A [TCA], for which, in the experiment with HDAC, the IC50% result is “in the nanomolar region”.

In the case of `Nc1ccccc1NC(=O)c1ccc(CNC(=O)OCc2cccnc2)cc1` [MS275], the “effective concentrations for sensitizing to ganciclovir” value in the experiment with EBV lymphoma cells is “effective at nanomolar concentrations”.

Consider “octaacetyl epigalocatechin [fully acetylated epigalocatechin]”, for which the biological activity result in experiment [1] is on record as “did not exhibit biological activity”.

With “octasuccinyl glycyrrhizin [Fully succinylated glycyrrhizin]”, the biological activity result in experiment [1] is “did not exhibit biological activity”.

“octasuccinyl epigalocatechin [Fully succinylated epigalocatechin]”: the biological activity result in experiment [1] is “did not exhibit biological activity”.

Consider “octaacetyl glycyrrhizin [fully acetylated glycyrrhizin]”, for which the biological activity result in experiment [1] was “did not exhibit biological activity”.

In the case of `O=C(O[C@@H]1Cc2c(O)cc(O)cc2O[C@@H]1c1cc(O)c(O)c(O)c1)c1cc(O)c(O)c(O)c1` [No 13 (Table 1), epigallocatechin gallate], in experiment [2], the “p300-induced p65 acetylation” value is listed as “cancels”. For the same compound, the “expression of cytokines induced by EBV infection” value with EBV infection is reported as “completely blocks”.

Values taken from patent publication US20230190756A1, “PHARMACEUTICAL FORMULATION FOR THE ELIMINATION OF CAUSATIVE AGENTS OF HERPESVIRAL INFECTIONS FROM THE TISSUES OF A MACROORGANISM” (priority 2017, published 2023).
